# In ChEMBL document CHEMBL3885881, “DrugMatrix”:
# Species on record: Rattus norvegicus
# Assay: DrugMatrix - Regimen: Daily Repeat
# Format: toxicity, organism-based, Sprague-Dawley
# Parameters: regimen Daily Repeat, gender Male, age 6-8 weeks
# Conditions: in vivo, po, 12 mg/kg, route oral GAVAGE, dose level Low, vehicle .5 % CMC; for ABSOLUTE BASOPHIL / ABSOLUTE EOSINOPHIL / ABSOLUTE LYMPHOCYTE / ABSOLUTE MONOCYTE / ABSOLUTE SEGMENTED NEUTROPHIL / BASOPHIL / EOSINOPHIL / ERYTHROCYTE COUNT / HEMATOCRIT / HEMOGLOBIN / LEUKOCYTE COUNT / LYMPHOCYTE / MEAN CORPUSCULAR HEMOGLOBIN / MEAN CORPUSCULAR HEMOGLOBIN CONCENTRATION / MEAN CORPUSCULAR VOLUME / MONOCYTE / NEUTROPHIL / NUCLEATED RED BLOOD CELLS / PLATELET COUNT: tissue Blood; for ALANINE AMINOTRANSFERASE / ALBUMIN / ALKALINE PHOSPHATASE / ASPARTATE AMINOTRANSFERASE / BLOOD UREA NITROGEN / CARBON DIOXIDE / CHLORIDE / CHOLESTEROL / CREATINE PHOSPHOKINASE / CREATININE / GLUCOSE / LACTATE DEHYDROGENASE / LIPASE / PHOSPHORUS / POTASSIUM / SODIUM / TOTAL BILIRUBIN / TOTAL PROTEIN / URIC ACID: tissue Plasma
compound,measurement,setting,value
CC(=O)O[C@]1(C(C)=O)CC[C@H]2[C@@H]3C=C(C)C4=CC(=O)CC[C@]4(C)[C@H]3CC[C@@]21C [MEGESTROL ACETATE],ABSOLUTE BASOPHIL,"72 h, time 3 day",0 CELLS/uL
same,ABSOLUTE EOSINOPHIL,"72 h, time 3 day",84.67 CELLS/uL
same,ABSOLUTE LYMPHOCYTE,"72 h, time 3 day",11039.33 CELLS/uL
same,ABSOLUTE MONOCYTE,"72 h, time 3 day",40 CELLS/uL
same,ABSOLUTE SEGMENTED NEUTROPHIL,"72 h, time 3 day",1136 CELLS/uL
same,BASOPHIL,"72 h, time 3 day",0%
same,EOSINOPHIL,"72 h, time 3 day",0.67%
same,ERYTHROCYTE COUNT,"72 h, time 3 day",5.83 x10E6/uL
same,HEMATOCRIT,"72 h, time 3 day",37.03%
same,HEMOGLOBIN,"72 h, time 3 day",13.83 G/DL
same,LEUKOCYTE COUNT,"72 h, time 3 day",12.3 x10E3/uL
same,LYMPHOCYTE,"72 h, time 3 day",89.67%
same,MEAN CORPUSCULAR HEMOGLOBIN,"72 h, time 3 day",23.77 pg
same,MEAN CORPUSCULAR HEMOGLOBIN CONCENTRATION,"72 h, time 3 day",37.37 G/DL
same,MEAN CORPUSCULAR VOLUME,"72 h, time 3 day",63.5 fL
same,MONOCYTE,"72 h, time 3 day",0.33%
same,NEUTROPHIL,"72 h, time 3 day",9.33%
same,NUCLEATED RED BLOOD CELLS,"72 h, time 3 day",0 /100WBC
same,PLATELET COUNT,"72 h, time 3 day",1299.33 x10E3/uL
same,ALANINE AMINOTRANSFERASE,"72 h, time 3 day",52 u/L
same,ALBUMIN,"72 h, time 3 day",4.43 G/DL
same,ALKALINE PHOSPHATASE,"72 h, time 3 day",394.33 u/L
same,ASPARTATE AMINOTRANSFERASE,"72 h, time 3 day",80.67 u/L
same,BLOOD UREA NITROGEN,"72 h, time 3 day",16.33 mg/dL
same,CARBON DIOXIDE,"72 h, time 3 day",25.33 mmol/L
same,CHLORIDE,"72 h, time 3 day",103.67 MEQ/L
same,CHOLESTEROL,"72 h, time 3 day",66.33 mg/dL
same,CREATINE PHOSPHOKINASE,"72 h, time 3 day",195 u/L
same,CREATININE,"72 h, time 3 day",0.25 mg/dL
same,GLUCOSE,"72 h, time 3 day",179.67 mg/dL
same,LACTATE DEHYDROGENASE,"72 h, time 3 day",177.33 u/L
same,LIPASE,"72 h, time 3 day",8 u/L
same,PHOSPHORUS,"72 h, time 3 day",13.6 mg/dL
same,POTASSIUM,"72 h, time 3 day",6.09 MEQ/L
same,SODIUM,"72 h, time 3 day",146.33 MEQ/L
same,TOTAL BILIRUBIN,"72 h, time 3 day",0.27 mg/dL
same,TOTAL PROTEIN,"72 h, time 3 day",6.43 G/DL
same,URIC ACID,"72 h, time 3 day",1.73 mg/dL
same,ABSOLUTE BASOPHIL,"120 h, time 5 day",0 CELLS/uL
same,ABSOLUTE EOSINOPHIL,"120 h, time 5 day",115.33 CELLS/uL
same,ABSOLUTE LYMPHOCYTE,"120 h, time 5 day",7823.33 CELLS/uL
same,ABSOLUTE MONOCYTE,"120 h, time 5 day",0 CELLS/uL
same,ABSOLUTE SEGMENTED NEUTROPHIL,"120 h, time 5 day",461.33 CELLS/uL
same,BASOPHIL,"120 h, time 5 day",0%
same,EOSINOPHIL,"120 h, time 5 day",1.33%
same,ERYTHROCYTE COUNT,"120 h, time 5 day",5.55 x10E6/uL
same,HEMATOCRIT,"120 h, time 5 day",36.1%
same,HEMOGLOBIN,"120 h, time 5 day",13.53 G/DL
same,LEUKOCYTE COUNT,"120 h, time 5 day",8.4 x10E3/uL
same,LYMPHOCYTE,"120 h, time 5 day",93.33%
same,MEAN CORPUSCULAR HEMOGLOBIN,"120 h, time 5 day",24.37 pg
same,MEAN CORPUSCULAR HEMOGLOBIN CONCENTRATION,"120 h, time 5 day",37.53 G/DL
same,MEAN CORPUSCULAR VOLUME,"120 h, time 5 day",65.03 fL
same,MONOCYTE,"120 h, time 5 day",0%
same,NEUTROPHIL,"120 h, time 5 day",5.33%
same,NUCLEATED RED BLOOD CELLS,"120 h, time 5 day",0 /100WBC
same,PLATELET COUNT,"120 h, time 5 day",1160 x10E3/uL
same,ALANINE AMINOTRANSFERASE,"120 h, time 5 day",48.33 u/L
same,ALBUMIN,"120 h, time 5 day",4.4 G/DL
same,ALKALINE PHOSPHATASE,"120 h, time 5 day",429.67 u/L
same,ASPARTATE AMINOTRANSFERASE,"120 h, time 5 day",75.33 u/L
same,BLOOD UREA NITROGEN,"120 h, time 5 day",15 mg/dL
same,CARBON DIOXIDE,"120 h, time 5 day",27.33 mmol/L
same,CHLORIDE,"120 h, time 5 day",102.33 MEQ/L
same,CHOLESTEROL,"120 h, time 5 day",63.33 mg/dL
same,CREATINE PHOSPHOKINASE,"120 h, time 5 day",205 u/L
same,CREATININE,"120 h, time 5 day",0.16 mg/dL
same,GLUCOSE,"120 h, time 5 day",151.67 mg/dL
same,LACTATE DEHYDROGENASE,"120 h, time 5 day",111.33 u/L
same,LIPASE,"120 h, time 5 day",8.33 u/L
same,PHOSPHORUS,"120 h, time 5 day",12.33 mg/dL
same,POTASSIUM,"120 h, time 5 day",5.99 MEQ/L
same,SODIUM,"120 h, time 5 day",148.33 MEQ/L
same,TOTAL BILIRUBIN,"120 h, time 5 day",0.3 mg/dL
same,TOTAL PROTEIN,"120 h, time 5 day",6.2 G/DL
same,URIC ACID,"120 h, time 5 day",0.93 mg/dL
